# Molecular target: T1, Cholesteryl ester transfer protein (Homo sapiens, UniProt P11597)
# T1 sequence (P11597 whole entry): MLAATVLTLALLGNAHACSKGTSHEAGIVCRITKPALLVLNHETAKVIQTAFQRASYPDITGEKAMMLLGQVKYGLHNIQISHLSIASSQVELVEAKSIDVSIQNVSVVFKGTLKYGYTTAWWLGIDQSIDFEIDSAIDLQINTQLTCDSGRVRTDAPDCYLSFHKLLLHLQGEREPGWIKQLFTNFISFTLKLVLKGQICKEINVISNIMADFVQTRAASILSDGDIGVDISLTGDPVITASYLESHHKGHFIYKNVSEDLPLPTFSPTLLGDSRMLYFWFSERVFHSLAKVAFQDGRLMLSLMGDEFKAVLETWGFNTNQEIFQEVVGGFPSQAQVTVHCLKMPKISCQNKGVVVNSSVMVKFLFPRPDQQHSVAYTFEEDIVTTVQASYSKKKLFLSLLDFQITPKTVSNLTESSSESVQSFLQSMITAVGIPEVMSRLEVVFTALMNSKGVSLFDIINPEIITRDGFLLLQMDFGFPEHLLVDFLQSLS
# Assay: Inhibition of CETP in human plasma assessed as reduction in fluorescent intensity by fluorescence analysis
row,SMILES,IC50 [nM]
1,CCC1CC(N(Cc2cc(C(F)(F)F)cc(C(F)(F)F)c2)C(C)=O)c2sccc2N1C(=O)OC(C)C (stereo not given),46000
2,CCC1CC(N(Cc2cc(C(F)(F)F)cc(C(F)(F)F)c2)C(C)=O)c2ccc(C)nc2N1C(=O)OC(C)C (stereo not given),44100
3,CC[C@H]1C[C@@H](N(Cc2cc(C(F)(F)F)cc(C(F)(F)F)c2)c2nnn(C)n2)c2nc(C(F)(F)F)ccc2N1C(=O)OC(C)C,7420
4,CC[C@H]1C[C@@H](N(Cc2cc(C(F)(F)F)cc(C(F)(F)F)c2)c2nnn(C)n2)c2nc(C)ccc2N1C(=O)OC(C)C,50000
5,CC[C@@H]1C[C@H](N(Cc2cc(C(F)(F)F)cc(C(F)(F)F)c2)c2nnn(C)n2)c2nc(NC)ccc2N1C(=O)OC(C)C,142
6,CCNc1ccc2c(n1)[C@@H](N(Cc1cc(C(F)(F)F)cc(C(F)(F)F)c1)c1nnn(C)n1)C[C@@H](CC)N2C(=O)OC(C)C,591
7,CC[C@@H]1C[C@H](N(Cc2cc(C(F)(F)F)cc(C(F)(F)F)c2)c2nnn(C)n2)c2nc(N3CCCC3)ccc2N1C(=O)OC(C)C,471
8,CC[C@@H]1C[C@H](N(Cc2cc(C(F)(F)F)cc(C(F)(F)F)c2)c2nnn(C)n2)c2nc(N3CCOCC3)ccc2N1C(=O)OC(C)C,25000
9,CC[C@@H]1C[C@H](N(Cc2cc(C(F)(F)F)cc(C(F)(F)F)c2)c2nnn(C)n2)c2nc(N3CCNCC3)ccc2N1C(=O)OC(C)C,> 50000
10,CC[C@@H]1C[C@H](N(Cc2cc(Cl)cc(Cc3cncc(C(F)(F)F)c3)c2)c2nnn(C)n2)c2nc(C(F)(F)F)ccc2N1C(=O)OC(C)C,207
11,CC[C@@H]1C[C@H](N(Cc2cc(C(F)(F)F)cc(C(F)(F)F)c2)c2nnn(C)n2)c2nc(C(F)(F)F)ccc2N1C(=O)OC,197
12,CC[C@@H]1C[C@H](N(Cc2cc(C(F)(F)F)cc(C(F)(F)F)c2)c2nnn(C)n2)c2nc(C(F)(F)F)ccc2N1C(=O)OCCN(C)C,572
13,CC[C@@H]1C[C@H](N(Cc2cc(C(F)(F)F)cc(C(F)(F)F)c2)c2nnn(C)n2)c2nc(C(F)(F)F)ccc2N1C(=O)OCCc1nn[nH]n1,488
14,CC[C@@H]1C[C@H](N(Cc2cc(C(F)(F)F)cc(C(F)(F)F)c2)c2nnn(C)n2)c2nc(C(F)(F)F)ccc2N1C(=O)OCCN1CCOCC1,2110
15,CC[C@@H]1C[C@H](N(Cc2cc(C(F)(F)F)cc(C(F)(F)F)c2)c2nnn(C)n2)c2nc(C(F)(F)F)ccc2N1C(=O)OCCN1CCN(C)CC1,5730
16,CC[C@@H]1C[C@H](N(Cc2cc(C(F)(F)F)cc(C(F)(F)F)c2)c2nnn(C)n2)c2nc(C(F)(F)F)ccc2N1C(=O)c1c(C)cnn1C,193
17,CC[C@@H]1C[C@H](N(Cc2cc(C(F)(F)F)cc(C(F)(F)F)c2)c2nnn(C)n2)c2nc(C(F)(F)F)ccc2N1CC(C)C,205
18,CC[C@@H]1C[C@H](N(Cc2cc(C(F)(F)F)cc(C(F)(F)F)c2)c2nnn(C)n2)c2nc(C(F)(F)F)ccc2N1CCC(C)C,825
19,CC[C@@H]1C[C@H](N(Cc2cc(C(F)(F)F)cc(C(F)(F)F)c2)C(C)=O)c2nc(OC)ccc2N1C(=O)OC(C)C (racemic),487
20,CC[C@@H]1C[C@H](N(Cc2cc(C(F)(F)F)cc(C(F)(F)F)c2)C(C)=O)c2nc(C(F)(F)F)ccc2N1C(=O)OC(C)C (racemic),396
21,CC[C@@H]1C[C@H](N(Cc2cc(C(F)(F)F)cc(C(F)(F)F)c2)C(C)=O)c2nc(Br)ccc2N1C(=O)OC(C)C (racemic),1300
22,CC[C@@H]1C[C@H](N(Cc2cc(C(F)(F)F)cc(C(F)(F)F)c2)C(C)=O)c2nc(C)ccc2N1C(=O)OC(C)C (racemic),980
23,CC[C@@H]1C[C@H](N(Cc2cc(C(F)(F)F)cc(C(F)(F)F)c2)C(C)=O)c2nc(N(C)C)ccc2N1C(=O)OC(C)C (racemic),948
24,CC(=O)N(Cc1cc(C(F)(F)F)cc(C(F)(F)F)c1)[C@H]1C[C@@H](C)N(C(=O)OC(C)C)c2ccc(C(F)(F)F)nc21 (racemic),1050
25,CC(=O)N(Cc1cc(C(F)(F)F)cc(C(F)(F)F)c1)[C@H]1C[C@@H](C2CC2)N(C(=O)OC(C)C)c2ccc(C(F)(F)F)nc21 (racemic),980
26,CC[C@@H]1C[C@H](N(C#N)Cc2cc(C(F)(F)F)cc(C(F)(F)F)c2)c2nc(C(F)(F)F)ccc2N1C(=O)OC(C)C (racemic),> 5000
27,CC[C@@H]1C[C@H](N(Cc2cc(C(F)(F)F)cc(C(F)(F)F)c2)c2cc(C)n[nH]2)c2nc(C(F)(F)F)ccc2N1C(=O)OC(C)C (racemic),203
28,CC[C@@H]1C[C@H](N(Cc2cc(C(F)(F)F)cc(C(F)(F)F)c2)c2cc(C)no2)c2nc(C(F)(F)F)ccc2N1C(=O)OC(C)C (racemic),154
29,CC[C@@H]1C[C@H](N(Cc2cc(C(F)(F)F)cc(C(F)(F)F)c2)c2nnn[nH]2)c2nc(C(F)(F)F)ccc2N1C(=O)OC(C)C (racemic),> 50000
30,CC[C@@H]1C[C@H](N(Cc2cc(C(F)(F)F)cc(C(F)(F)F)c2)c2nnnn2C)c2nc(C(F)(F)F)ccc2N1C(=O)OC(C)C (racemic),> 50000

# Further lines, results first:
row,IC50 [nM],SMILES
1,31,CC[C@@H]1C[C@H](N(Cc2cc(C(F)(F)F)cc(C(F)(F)F)c2)c2nnn(C)n2)c2nc(N(C)C)ccc2N1C(=O)OC(C)C
2,98,CC[C@@H]1C[C@H](N(Cc2cc(C(F)(F)F)cc(C(F)(F)F)c2)c2nnn(C)n2)c2nc(N)ccc2N1C(=O)OC(C)C
3,20,CC[C@@H]1C[C@H](N(Cc2cc(Cl)cc(C(F)(F)F)c2)c2nnn(C)n2)c2nc(C(F)(F)F)ccc2N1C(=O)OC(C)C
4,12,CC[C@@H]1C[C@H](N(Cc2cc(Cl)cc(C(F)(F)F)c2)c2nnn(C)n2)c2nc(C)ccc2N1C(=O)OC(C)C
5,21,CC[C@@H]1C[C@H](N(Cc2cc(C#N)cc(C(F)(F)F)c2)c2nnn(C)n2)c2nc(C)ccc2N1C(=O)OC(C)C
6,30,CC[C@@H]1C[C@H](N(Cc2cc(F)cc(C(F)(F)F)c2)c2nnn(C)n2)c2nc(C)ccc2N1C(=O)OC(C)C
7,24,CC[C@@H]1C[C@H](N(Cc2cc(Cl)cc(Cl)c2)c2nnn(C)n2)c2nc(C)ccc2N1C(=O)OC(C)C
8,29,CCOC(=O)N1c2ccc(C(F)(F)F)nc2[C@@H](N(Cc2cc(C(F)(F)F)cc(C(F)(F)F)c2)c2nnn(C)n2)C[C@H]1CC
9,108,CC[C@@H]1C[C@H](N(Cc2cc(C(F)(F)F)cc(C(F)(F)F)c2)c2nnn(C)n2)c2nc(C(F)(F)F)ccc2N1C(=O)OCCO
10,139,CC[C@@H]1C[C@H](N(Cc2cc(C(F)(F)F)cc(C(F)(F)F)c2)c2nnn(C)n2)c2nc(C(F)(F)F)ccc2N1C(=O)OCC(C)(C)C(=O)O
11,66,CC[C@@H]1C[C@H](N(Cc2cc(C(F)(F)F)cc(C(F)(F)F)c2)c2nnn(C)n2)c2nc(C(F)(F)F)ccc2N1C(=O)OC1CCOCC1
12,72,CC[C@@H]1C[C@H](N(Cc2cc(C(F)(F)F)cc(C(F)(F)F)c2)c2nnn(C)n2)c2nc(C(F)(F)F)ccc2N1C(=O)OC1CCN(C)CC1
13,55,CC[C@@H]1C[C@H](N(Cc2cc(C(F)(F)F)cc(C(F)(F)F)c2)c2nnn(C)n2)c2nc(C(F)(F)F)ccc2N1C(=O)C(C)C
14,114,CCCC(=O)N1c2ccc(C(F)(F)F)nc2[C@@H](N(Cc2cc(C(F)(F)F)cc(C(F)(F)F)c2)c2nnn(C)n2)C[C@H]1CC
15,74,CC[C@@H]1C[C@H](N(Cc2cc(C(F)(F)F)cc(C(F)(F)F)c2)c2noc(C)n2)c2nc(C(F)(F)F)ccc2N1C(=O)OC(C)C (racemic)
16,49,CC[C@@H]1C[C@H](N(Cc2cc(C(F)(F)F)cc(C(F)(F)F)c2)c2nnn(C)n2)c2nc(C(F)(F)F)ccc2N1C(=O)OC(C)C (racemic)
17,134,CC[C@@H]1C[C@H](N(Cc2cc(C(F)(F)F)cc(C(F)(F)F)c2)c2nnn(C)n2)c2nc(OC)ccc2N1C(=O)OC(C)C (racemic)
18,47,CC[C@@H]1C[C@H](N(Cc2cc(C(F)(F)F)cc(C(F)(F)F)c2)c2nnn(C)n2)c2nc(Br)ccc2N1C(=O)OC(C)C (racemic)
19,61,CC[C@@H]1C[C@H](N(Cc2cc(C(F)(F)F)cc(C(F)(F)F)c2)c2nnn(C)n2)c2nc(C)ccc2N1C(=O)OC(C)C (racemic)
20,66,CC[C@@H]1C[C@H](N(Cc2cc(C(F)(F)F)cc(C(F)(F)F)c2)c2nnn(CCN)n2)c2nc(C(F)(F)F)ccc2N1C(=O)OC(C)C (racemic)
21,44,CC[C@@H]1C[C@H](N(Cc2cc(C(F)(F)F)cc(C(F)(F)F)c2)c2nnn(CCO)n2)c2nc(C(F)(F)F)ccc2N1C(=O)OC(C)C (racemic)
22,38.4,CC[C@@H]1C[C@H](N(Cc2cc(C(F)(F)F)cc(C(F)(F)F)c2)c2nnn(C)n2)c2nc(OC)c(C)cc2N1C(=O)OC(C)C (racemic)
23,106,CC[C@@H]1C[C@H](N(Cc2cc(C(F)(F)F)cc(C(F)(F)F)c2)c2nnn(C)n2)c2nc(N)c(C)cc2N1C(=O)OC(C)C (racemic)
24,24,CCOC(=O)N1c2c(C)cc(C(F)(F)F)nc2[C@@H](N(Cc2cc(C(F)(F)F)cc(C(F)(F)F)c2)c2nnn(C)n2)C[C@H]1CC (racemic)
25,26,Cc1cc(C)c2c(c1)[C@@H](N(Cc1cc(C(F)(F)F)cc(C(F)(F)F)c1)c1nnn(C)n1)CCCN2C[C@H]1CC[C@H](C(=O)O)CC1 [EVACETRAPIB]

# Reference: ChEMBL document CHEMBL2016576, “Design, synthesis and structure-activity-relationship of 1,5-tetrahydronaphthyridines as CETP inhibitors” (Bioorg Med Chem Lett, 2012)
